What was measured:
parent strain (SAWy518) [1] = tested on: parent strain (SAWy518)
parent strain (SAWy518) [2] = assay: microbe, parasite or virus in culture; design: species or system Saccharomyces cerevisiae SAWy518; Off-target growth counter-screen, OD600 as per cent of untreated wells, strain lacking MCT1; details: 18.5 h; sheet Primary Screen - final;; off-target growth of parent strain, about 18 h
Description: Cells were grown for 18 hours prior to OD measurement. Fill represents manual compound grouping based on compound class or target. OD600 is reported in Tecan units. […] The drug library used in this study for the initial screen and rescreen was provided by the Small Molecule Screening Center at Princeton University, through a collaboration with Dr. Hahn Kim. […] Follow-up analysis (IC50 determinations) on library compounds was performed using compounds purchased from outside sources. […] Stocks were then diluted 100-fold into media containing 0.01 OD600 inoculation of yeast, to achieve the final concentrations listed. Where compounds were added manually (for example 10 μM AZD3965 addition) stock concentrations were diluted by a factor of 100-fold regardless of scale, resulting in a final concentration of 1% v/v DMSO which is well tolerated by yeast.

Structure (SMILES) | OffScreen_percentage (parent strain (SAWy518) [1]) [percentage] | Offscreen_18hr (parent strain (SAWy518) [1]) | Offscreen_24hr (parent strain (SAWy518) [1]) | Offscreen_42hr (parent strain (SAWy518) [1]) | Read_percentage (parent strain (SAWy518) [1]) | viability at 10 µM (parent strain (SAWy518) [2]) [%]
C=CCOC(Cn1ccnc1)c1ccc(Cl)cc1Cl (centres unmarked) [Enilconazole] | 100.372 | 0.81 | 0.8908 | 0.9485 | 100.372 percentage | 100
N#CC(=C(\N)Sc1ccccc1N)/C(C#N)=C(/N)Sc1ccccc1N [U0126] | 91.0905 | 0.7351 | 0.8786 | 0.95 | 91.0905 | 91.1
CC/C(=C(\c1ccccc1)c1ccc(OCCN(C)C)cc1)c1ccccc1.O=C(O)CC(O)(CC(=O)O)C(=O)O [Tamoxifen Citrate] | 96.6419 | 0.7799 | 0.893 | 0.9507 | 96.6419 | 96.6
CN1C(C(=O)Nc2ccccn2)=C(O)c2ccccc2S1(=O)=O [Piroxicam] |  |  |  |  |  | 95.2
O=C(O)c1ccc(-n2nc(-c3ccccc3O)nc2-c2ccccc2O)cc1 [Deferasirox] | 95.9727 | 0.7745 | 0.8724 | 0.9291 | 95.9727 percentage | 96
CCN(CC)CCNC(=O)c1c(C)[nH]c(/C=C2\C(=O)Nc3ccc(F)cc32)c1C.O=C(O)C[C@H](O)C(=O)O [Sunitinib Malate] | 101.351 | 0.8179 | 0.9023 | 0.9606 | 101.351 | 101
NCCS(=O)(=O)O [Taurine] | 104.139 | 0.8404 | 0.9173 | 0.9826 | 104.139 | 104
O=C(O)Cc1ccccc1Nc1c(Cl)cccc1Cl [Diclofenac] |  |  |  |  |  | 101
O=C1c2ccc(Nc3ccc(F)cc3F)cc2CCc2ccc(OC[C@H](O)CO)cc21 [Skepinone-L] | 96.8897 | 0.7819 | 0.9197 | 0.985 | 96.8897 | 96.9
CCn1cc(-c2ccnc3[nH]c(-c4cccc(CN(C)C)c4)cc23)c(-c2ccc(NC(=O)N(C)C)cc2)n1 [GSK1070916] | 97.373 | 0.7858 | 0.8818 | 0.9396 | 97.373 percentage | 97.4
CCOc1nc2cccc(C(=O)OC(C)OC(=O)OC3CCCCC3)c2n1Cc1ccc(-c2ccccc2-c2nnn[nH]2)cc1 (centres unmarked) [Candesartan Cilextil] | 98.0917 | 0.7916 | 0.8922 | 0.95 | 98.0917 percentage | 98.1
O=c1c(O)c(-c2ccc(O)c(O)c2)oc2cc(O)cc(O)c12 [Quercetin] |  |  |  |  |  | 96.1
COCCN1C2=C(C(=O)c3ccccc3C2=O)N(Cc2cnccn2)C1C (centres unmarked) [YM155] |  |  |  |  |  | 104
CC1=C(CC(=O)O)c2cc(F)ccc2/C1=C\c1ccc([S+](C)[O-])cc1 (centres unmarked) [Sulindac] |  |  |  |  |  | 103
CC(Cc1ccc(O)c(O)c1)C(C)Cc1ccc(O)c(O)c1 (centres unmarked) [Nordihydroguaiaretic_acid] |  |  |  |  |  | 101
O=C1CC(c2ccc(O)cc2)Oc2ccccc21 (centres unmarked) |  |  |  |  |  | 90.8
O=C(O)c1ccccc1-c1c2cc(I)c(=O)c(I)c-2oc2c(I)c(O)c(I)cc12 [Erythrosine] |  |  |  |  |  | 101
C=CC(C1=CC(=O)C(OC)=CC1=O)c1ccc(O)cc1 (centres unmarked) [DALBERGIONE, 4-METHOXY-4'-HYDROXY-] |  |  |  |  |  | 102
O=C(/C=C/c1ccc(O)cc1)c1ccccc1 [4-hydroxychalcone] |  |  |  |  |  | 104
CS(=O)(=O)c1ccc(C2=C(c3ccccc3)C(=O)OC2)cc1 [Rofecoxib] |  |  |  |  |  | 104
